Laboratory results taken from US10294202B2, “Pyrrolidinones as herbicides” (FMC Corporation, priority 2013, dated 2019).

Experiments:
crabgrass, large = assay: Test A pre-/postemergence herbicide test; format: in vivo, Digitaria sanguinalis
In short: (§1)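 Visual injury ratings, 0 = no effect, 100 = complete control, taken ~10 days after treatment against untreated greenhouse controls. Preemergence: directed soil spray onto seeded loam/sand pots. Postemergence: spray onto plants at one- to two-leaf stage, 2–10 cm tall.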

morningglory [1] = assay: Test A pre-/postemergence herbicide test; format: in vivo, Ipomoea spp.
In short: as §1

johnsongrass = assay: Test C pre-/postemergence herbicide test; format: in vivo, Sorghum halepense; details: Preemergence; for Johnsongrass plant response rating: 31 g ai/ha, scale 0 to 100, 0 is no effect and 100 is complete control
From the text: (§2) Seeds of plant species selected from blackgrass (Alopecurus myosuroides), ryegrass, Italian (Italian ryegrass, Lolium multiflorum), wheat (winter wheat, Triticum aestivum), galium (catchweed bedstraw, Galium aparine), corn (Zea mays), crabgrass, large (large crabgrass, Digitaria sanguinalis), foxtail, giant (giant foxtail, Setaria faberii), johnsongrass (Sorghum halepense), lambsquarters (Chenopodium album), morningglory (Ipomoea coccinea), nutsedge, yellow (yellow nutsedge, Cyperus esculentus), pigweed (Amaranthus retroflexus), ragweed (common ragweed, Ambrosia elatior), soybean (Glycine max), barnyardgrass (Echinochloa crus-galli), oilseed rape (Brassica napus), waterhemp (common waterhemp, Amaranthus rudis), kochia (Kochia scoparia), oat, wild (wild oat, Avena fatua), surinam grass (Brachiaria decumbens), foxtail, green (green foxtail, Setaria viridis), goosegrass (Eleusine indica), bromegrass, downy (downy bromegrass, Bromus tectorum), nightshade (eastern black nightshade, Solanum ptycanthum), cocklebur (common cocklebur, Xanthium strumarium), cupgrass, woolly (woolly cupgrass, Eriochloa villosa), bermudagrass (Cynodon dactylon), sunflower, (common oilseed sunflower, Helianthus annuus), Russian thistle (Salsola kali) and velvetleaf (Abutilon theophrasti) were planted into a blend of loam soil and sand and treated preemergence with test chemicals formulated in a non-phytotoxic solvent mixture which included a surfactant. At the same time, plants selected from these crop and weed species and also barley (winter barley, Hordeum vulgare), […]), chickweed (common chickweed, Stellaria media), deadnettle (henbit deadnettle, Lamium amplexicaule), and canarygrass (littleseed canarygrass, Phalaris minor) were planted in pots containing Redi-Earth® planting medium (Scotts Company, 14111 Scottslawn Road, Marysville, Ohio 43041) comprising spaghnum peat moss, vermiculite, wetting agent and starter nutrients and treated with postemergence applications of test chemicals formulated in the same manner. Plants ranged in height from 2 to 18 cm (1- to 4-leaf stage) for postemergence treatments. Treated plants and controls were maintained in a greenhouse for 13 to 15 days, after which time all species were compared to controls and visually evaluated. Plant response ratings, summarized in Table C, are based on a scale of 0 to 100 where 0 is no effect and 100 is complete control. A dash (-) response means no test result.

morningglory [2] = assay: Test C pre-/postemergence herbicide test; format: in vivo, Ipomoea coccinea; details: Preemergence; for Morningglory plant response rating: 31 g ai/ha, scale 0 to 100, 0 is no effect and 100 is complete control
From the text: as §2

wheat (winter wheat) = assay: Test C pre-/postemergence herbicide test; format: in vivo, Triticum aestivum; details: Preemergence; for Wheat plant response rating: 31 g ai/ha, scale 0 to 100, 0 is no effect and 100 is complete control
From the text: as §2

velvetleaf = assay: Test C pre-/postemergence herbicide test; format: in vivo, Abutilon theophrasti; details: Preemergence; for Velvetleaf plant response rating: 31 g ai/ha, scale 0 to 100, 0 is no effect and 100 is complete control
From the text: as §2

[3] = Postemergence, 125 g ai/ha, 0 to 100 scale, 0 no effect, 100 complete control
[4] = Postemergence, 500 g ai/ha, 0 to 100 scale (0 no effect, 100 complete control)
[5] = Preemergence, 125 g ai/ha, visual rating on 0 to 100 scale (0 no effect, 100 complete control)
[6] = preemergence, 500 g ai/ha, 0 to 100 scale
[7] = 125 g ai/ha, scale 0 to 100 (0 no effect, 100 complete control)
[8] = Postemergence, 1000 g ai/ha, 0 to 100 scale (0 no effect, 100 complete control)
[9] = Preemergence, 1000 g ai/ha, visual rating on 0 to 100 scale (0 no effect, 100 complete control), approx. 10 days

SMILES | Plant response rating, Crabgrass, Large (crabgrass, large; [3]) | Plant response rating, Crabgrass, Large (crabgrass, large; [4]) | Crabgrass, Large plant response rating (crabgrass, large; [5]) | Plant response rating, Crabgrass, Large (crabgrass, large; [6]) | Plant response rating, Morningglory (morningglory [1]; [4]) | Morningglory plant response rating (morningglory [1]; [5]) | Plant response rating, Morningglory (morningglory [1]; [6]) | Plant response rating, Morningglory (morningglory [1]; [3]) | Plant response rating, Johnsongrass (johnsongrass; 62 g ai/ha, scale 0 to 100) | Plant response rating, Johnsongrass (johnsongrass; [7]) | Plant response rating, Morningglory (morningglory [2]; 62 g ai/ha, scale 0 to 100) | Plant response rating, Morningglory (morningglory [2]; [7]) | Plant response rating, Wheat (wheat (winter wheat); 62 g ai/ha, scale 0 to 100) | Plant response rating, Wheat (wheat (winter wheat); [7]) | Plant response rating, Velvetleaf (velvetleaf; 62 g ai/ha, scale 0 to 100) | Plant response rating, Velvetleaf (velvetleaf; [7]) | further results
O=C1NCC(c2cccc(C(F)(F)F)c2)C1C(=O)Nc1ccccc1F (racemic) [Compound 3] | 70 | 80 | 90 | 90 | 30 | 0 | 0 | – | – | – | – | – | – | – | – | – | –
O=C1NCC(c2ccc(F)c(F)c2)C1C(=O)Nc1cccc(F)c1 (racemic) [Compound 12] | 80 | 90 | 90 | 90 | 0 | 0 | 0 | 0 | – | – | – | – | – | – | – | – | –
O=C1NCC(c2ccc(F)cc2)C1C(=O)Nc1ccccc1F (racemic) [Compound 16] | 90 | 90 | 90 | 90 | 10 | 0 | 0 | 0 | 0 | 0 | 0 | 0 | 0 | 0 | 0 | 0 | –
O=C1NCC(c2cc(F)c(F)c(F)c2)C1C(=O)Nc1ccccc1C(F)(F)F (racemic) [Compound 33] | – | – | – | – | – | – | – | – | 0 | 0 | 0 | 0 | 0 | 35 | 10 | 10 | Plant response rating, Crabgrass, Large (crabgrass, large; [8]): 90; Plant response rating, Crabgrass, Large (crabgrass, large; [9]): 90; Plant response rating, Morningglory (morningglory [1]; [8]): 20
Cc1ccccc1NC(=O)C1C(=O)NCC1c1cc(F)c(F)c(F)c1 (racemic) [Compound 35] | – | – | – | – | – | – | – | – | 0 | 0 | 10 | 10 | 0 | 10 | 20 | 20 | Plant response rating, Crabgrass, Large (crabgrass, large; [8]): 90; Plant response rating, Crabgrass, Large (crabgrass, large; [9]): 90; Plant response rating, Morningglory (morningglory [1]; [8]): 0; Plant response rating, Morningglory (morningglory [1]; [9]): 0
O=C1NCC(c2ccc(Cl)c(F)c2)C1C(=O)Nc1ccccc1F (stereo not drawn) [Compound 53] | 80 | 80 | 90 | 90 | 0 | 0 | 0 | 0 | 0 | 0 | 0 | 0 | 0 | 0 | 0 | 0 | –
O=C1NCC(c2ccc(F)c(Cl)c2)C1C(=O)Nc1cccc(F)c1F (stereo not drawn) [Compound 59] | 70 | 90 | 90 | 90 | 0 | 0 | 0 | 0 | 0 | 0 | 0 | 15 | 0 | 0 | 0 | 0 | –
O=C1NCC(c2ccc3c(c2)OC(F)(F)O3)C1C(=O)Nc1cccc(F)c1F (stereo not drawn) [Compound 62] | 80 | 90 | 90 | 90 | 0 | 0 | 0 | 0 | 10 | 30 | 10 | 15 | 0 | 0 | 20 | 25 | –
O=C1NCC(c2cccc(Br)c2)C1C(=O)Nc1cccc(F)c1F (stereo not drawn) [Compound 64] | 80 | 80 | 80 | 90 | 0 | 0 | 0 | 0 | 40 | 75 | 20 | 20 | 5 | 15 | 10 | 10 | –
O=C1NCC(c2cccc(Br)c2)C1C(=O)Nc1ccccc1F (stereo not drawn) [Compound 66] | 80 | 80 | 80 | 90 | 0 | 0 | 0 | 0 | – | – | 25 | 35 | 0 | 5 | 20 | 25 | Johnsongrass plant response rating (johnsongrass): 30; Morningglory plant response rating (morningglory [2]): 15; Wheat plant response rating (wheat (winter wheat)): 0; Velvetleaf plant response rating (velvetleaf): 10
O=C1NCC(c2cccc(OC(F)(F)F)c2)C1C(=O)Nc1cccc(F)c1F (stereo not drawn) [Compound 68] | 90 | 90 | 90 | 90 | 0 | 0 | 0 | 0 | 35 | 40 | 0 | 15 | 5 | 30 | 10 | 10 | Johnsongrass plant response rating (johnsongrass): 0; Morningglory plant response rating (morningglory [2]): 0; Wheat plant response rating (wheat (winter wheat)): 0; Velvetleaf plant response rating (velvetleaf): 10
